Values joined by “and” are separate entries in the source; they are usually repeats but may differ in a detail not shown here. Identical values can stand only once. “Also recorded” adds a separate entry of the source.
Assay: Safety and tolerability, Part A single ascending-dose phase in healthy participants
Format: in vivo, human
Description: A further two cohorts were recruited. […] Each individual participated in one treatment period only, with the exception of the food-effect cohort (cohort A3) in which there were two treatment periods separated by at least 7 days washout. Participants resided at the Clinical Research Unit (CRU) from 1 day ahead of dosing (day − 1) to day 3 and returned for a follow-up visit 5–7 days after their final dose. For all cohorts, doses were administered in the fasted state in the morning of day 1 of Treatment Period 1. In the food-effect cohort, doses were given 30 min after the start of a high-fat breakfast (973 calories total: approximately 150 protein calories, 250 carbohydrate calories, and 500–600 fat calories) on day 1 of Treatment Period 2. For cohorts A1 to A5 in Treatment Period 1, dosing occurred such that one pair (one active and one placebo) were dosed at least 24 h before the remaining participants. Continuation to dose those who remained was at the investigator’s discretion. Escalating doses were administered following satisfactory sponsor and investigator review of the safety and tolerability data (up to 48 h post-final dose) and PK data (up to 24 h post-final dose) from the lower dose levels.
Safety and tolerability assessments included adverse event (AE) monitoring, physical examinations, laboratory assessments (hematology, clinical chemistry, and urinalysis), vital signs (blood pressure, pulse rate, and body temperature) and ECG.
No formal statistical assessment was performed for the safety analysis.

[1] = single and multiple doses, Parts A and B
[2] = single dose 5 mg (1 × 5 mg), fasted
[3] = single dose 20 mg (4 × 5 mg), fasted
[4] = single dose 50 mg (1 × 50 mg), fasted
[5] = single dose 50 mg (1 × 50 mg), fed
[6] = single dose 50 mg (10 × 5 mg), fasted
[7] = single dose 100 mg (2 × 50 mg), fasted
[8] = single dose 200 mg (4 × 50 mg), fasted
[9] = single dose 400 mg (8 × 50 mg), fasted
[10] = treatment-emergent period, Parts A and B

## OC[C@H]1O[C@H](Sc2cncc(Br)c2)[C@H](O)[C@@H](n2cc(-c3cc(F)c(F)c(F)c3)nn2)[C@H]1O [GB1211]
Part A 100 mg, fasted
  TEAE Pain, participants: 0 n (%)
  TEAE Rash, participants: 0 n (%)
  TEAE Respiratory, thoracic and mediastinal disorders, participants: 0 n (%)
  TEAE Skin and subcutaneous tissue disorders, participants: 0 n (%)
  TEAE Wound, participants: 0 n (%)
Part A 200 mg, fasted
  TEAE Back pain, participants: 0 n (%)
  TEAE Constipation, participants: 0 n (%)
  TEAE Cough, participants: 0 n (%)
  TEAE Decreased appetite, participants: 0 n (%)
  TEAE Diarrhea, participants: 0 n (%)
  TEAE Dry mouth, participants: 0 n (%)
  TEAE Dry skin, participants: 0 n (%)
  TEAE Dyspepsia, participants: 0 n (%)
  TEAE Gastrointestinal disorders, participants: 0 n (%)
  TEAE General disorders and administration site conditions, participants: 0 n (%)
  TEAE Headache, participants: 0 n (%)
  TEAE Infections and infestations, participants: 0 n (%)
  TEAE Injury, poisoning and procedural complications, participants: 0 n (%)
  TEAE Medical device site reaction, participants: 0 n (%)
  TEAE Metabolism and nutrition disorders, participants: 0 n (%)
  TEAE Musculoskeletal and connective tissue disorders, participants: 0 n (%)
  TEAE Nasopharyngitis, participants: 0 n (%)
  TEAE Nervous system disorders, participants: 0 n (%)
  TEAE Pain, participants: 0 n (%)
  TEAE Rash, participants: 0 n (%)
  TEAE Respiratory, thoracic and mediastinal disorders, participants: 0 n (%)
  TEAE Skin and subcutaneous tissue disorders, participants: 0 n (%)
  TEAE Wound, participants: 0 n (%)
Part A 400 mg, fasted
  TEAE Back pain, participants: 0 n (%)
  TEAE Constipation, participants: 0 n (%)
  TEAE Cough, participants: 0 n (%)
  TEAE Decreased appetite, participants: 0 n (%)
  TEAE Diarrhea, participants: 0 n (%)
  TEAE Dry mouth, participants: 0 n (%)
  TEAE Dry skin, participants: 0 n (%)
  TEAE Dyspepsia, participants: 0 n (%)
  TEAE Gastrointestinal disorders, participants: 0 n (%)
  TEAE General disorders and administration site conditions, participants: 0 n (%)
  TEAE Headache, participants: 0 n (%)
  TEAE Infections and infestations, participants: 0 n (%)
  TEAE Injury, poisoning and procedural complications, participants: 0 n (%)
  TEAE Medical device site reaction, participants: 0 n (%)
  TEAE Metabolism and nutrition disorders, participants: 0 n (%)
  TEAE Musculoskeletal and connective tissue disorders, participants: 0 n (%)
  TEAE Nasopharyngitis, participants: 0 n (%)
  TEAE Nervous system disorders, participants: 0 n (%)
  TEAE Pain, participants: 0 n (%)
  TEAE Rash, no. of AEs: 1
  TEAE Rash, participants: 1 (16.7%) n (%)
  TEAE Respiratory, thoracic and mediastinal disorders, participants: 0 n (%)
  TEAE Skin and subcutaneous tissue disorders, no. of AEs: 1
  TEAE Skin and subcutaneous tissue disorders, participants: 1 (16.7%) n (%)
  TEAE Wound, participants: 0 n (%)
Part A, all GB1211 doses
  Number of TEAEs, GB1211 group: 11
  Participants with TEAEs, GB1211 group: 8
[1]
  Safety concerns: No safety concerns were identified
  Tolerability: well tolerated
[2]
  Number of TEAEs: 4
  Participants discontinued due to TEAEs: 0 n (%)
  Participants with SAEs: 0 n (%)
  Participants with TEAEs: 3 (50.0) n (%) and 3 (50.0%) n (%)
  Severity (all TEAEs): Mild: 3 (50.0) n (%)
  Severity (all TEAEs): Moderate: 0 n (%)
  Severity (all TEAEs): Severe: 0 n (%)
  Severity (all TEAEs): Total: 3 (50.0) n (%)
  Severity (possibly related to study treatment): Mild: 1 (16.7) n (%)
  Severity (possibly related to study treatment): Moderate: 0 n (%)
  Severity (possibly related to study treatment): Severe: 0 n (%)
  Severity (possibly related to study treatment): Total: 1 (16.7) n (%)
[3]
  Number of TEAEs: 1
  Participants discontinued due to TEAEs: 0 n (%)
  Participants with SAEs: 0 n (%)
  Participants with TEAEs: 1 (16.7) n (%) and 1 (16.7%) n (%)
  Severity (all TEAEs): Mild: 1 (16.7) n (%)
  Severity (all TEAEs): Moderate: 0 n (%)
  Severity (all TEAEs): Severe: 0 n (%)
  Severity (all TEAEs): Total: 1 (16.7) n (%)
  Severity (possibly related to study treatment): Mild: 0 n (%)
  Severity (possibly related to study treatment): Moderate: 0 n (%)
  Severity (possibly related to study treatment): Severe: 0 n (%)
  Severity (possibly related to study treatment): Total: 0 n (%)
[4]
  Number of TEAEs: 1
  Participants discontinued due to TEAEs: 0 n (%)
  Participants with SAEs: 0 n (%)
  Participants with TEAEs: 1 (16.7) n (%) and 1 (16.7%) n (%)
  Severity (all TEAEs): Mild: 1 (16.7) n (%)
  Severity (all TEAEs): Moderate: 0 n (%)
  Severity (all TEAEs): Severe: 0 n (%)
  Severity (all TEAEs): Total: 1 (16.7) n (%)
  Severity (possibly related to study treatment): Mild: 0 n (%)
  Severity (possibly related to study treatment): Moderate: 0 n (%)
  Severity (possibly related to study treatment): Severe: 0 n (%)
  Severity (possibly related to study treatment): Total: 0 n (%)
[5]
  Number of TEAEs: 1
  Participants discontinued due to TEAEs: 0 n (%)
  Participants with SAEs: 0 n (%)
  Participants with TEAEs: 1 (16.7) n (%) and 1 (16.7%) n (%)
  Severity (all TEAEs): Mild: 0 n (%)
  Severity (all TEAEs): Moderate: 1 n (%) and 1 (16.7) n (%)
  Severity (all TEAEs): Severe: 0 n (%)
  Severity (all TEAEs): Total: 1 (16.7) n (%)
  Severity (possibly related to study treatment): Mild: 0 n (%)
  Severity (possibly related to study treatment): Moderate: 0 n (%)
  Severity (possibly related to study treatment): Severe: 0 n (%)
  Severity (possibly related to study treatment): Total: 0 n (%)
[6]
  Number of TEAEs: 1
  Participants discontinued due to TEAEs: 0 n (%)
  Participants with SAEs: 0 n (%)
  Participants with TEAEs: 1 (16.7) n (%) and 1 (16.7%) n (%)
  Severity (all TEAEs): Mild: 1 (16.7) n (%)
  Severity (all TEAEs): Moderate: 0 n (%)
  Severity (all TEAEs): Severe: 0 n (%)
  Severity (all TEAEs): Total: 1 (16.7) n (%)
  Severity (possibly related to study treatment): Mild: 0 n (%)
  Severity (possibly related to study treatment): Moderate: 0 n (%)
  Severity (possibly related to study treatment): Severe: 0 n (%)
  Severity (possibly related to study treatment): Total: 0 n (%)
[7]
  Number of TEAEs: 2
  Participants discontinued due to TEAEs: 0 n (%)
  Participants with SAEs: 0 n (%)
  Participants with TEAEs: 1 (16.7) n (%) and 1 (16.7%) n (%)
  Severity (all TEAEs): Mild: 1 (16.7) n (%)
  Severity (all TEAEs): Moderate: 0 n (%)
  Severity (all TEAEs): Severe: 0 n (%)
  Severity (all TEAEs): Total: 1 (16.7) n (%)
  Severity (possibly related to study treatment): Mild: 1 (16.7) n (%)
  Severity (possibly related to study treatment): Moderate: 0 n (%)
  Severity (possibly related to study treatment): Severe: 0 n (%)
  Severity (possibly related to study treatment): Total: 1 (16.7) n (%)
[8]
  Number of TEAEs: 0
  Participants discontinued due to TEAEs: 0 n (%)
  Participants with SAEs: 0 n (%)
  Participants with TEAEs: 0 n (%)
  Severity (all TEAEs): Mild: 0 n (%)
  Severity (all TEAEs): Moderate: 0 n (%)
  Severity (all TEAEs): Severe: 0 n (%)
  Severity (all TEAEs): Total: 0 n (%)
  Severity (possibly related to study treatment): Mild: 0 n (%)
  Severity (possibly related to study treatment): Moderate: 0 n (%)
  Severity (possibly related to study treatment): Severe: 0 n (%)
  Severity (possibly related to study treatment): Total: 0 n (%)
[9]
  Number of TEAEs: 1
  Participants discontinued due to TEAEs: 0 n (%)
  Participants with SAEs: 0 n (%)
  Participants with TEAEs: 1 (16.7) n (%) and 1 (16.7%) n (%)
  Severity (all TEAEs): Mild: 1 (16.7) n (%)
  Severity (all TEAEs): Moderate: 0 n (%)
  Severity (all TEAEs): Severe: 0 n (%)
  Severity (all TEAEs): Total: 1 (16.7) n (%)
  Severity (possibly related to study treatment): Mild: 1 (16.7) n (%)
  Severity (possibly related to study treatment): Moderate: 0 n (%)
  Severity (possibly related to study treatment): Severe: 0 n (%)
  Severity (possibly related to study treatment): Total: 1 (16.7) n (%)
Single or multiple GB1211 doses
  Clinical laboratory evaluation, vital signs, ECG or physical examination: no treatment- or dose-related trend; also recorded: no clinically significant finding
[10]
  Serious AEs or severe AEs: no severe TEAEs or serious AEs reported
  Study discontinuations due to AEs: no study discontinuations due to AEs
